Results on six compounds are retold here after patent publication US5298491A, “Derivatives of endogenous mediators, their salts, method of preparation, applications and compositions in which they are present” (priority 1990, dated 1994).

Data set [1] deals with T1, 5-HT1D sites (Macaca mulatta, UniProt F6SFA9).
T1 construct: The right hemisphere is cut out and frozen by isopentane cooled in liquid nitrogen; from tissue; host or cells: rhesus monkey brain sections (right hemisphere, 10 μm, frozen), substantia nigra
T1 sequence (F6SFA9 1-390): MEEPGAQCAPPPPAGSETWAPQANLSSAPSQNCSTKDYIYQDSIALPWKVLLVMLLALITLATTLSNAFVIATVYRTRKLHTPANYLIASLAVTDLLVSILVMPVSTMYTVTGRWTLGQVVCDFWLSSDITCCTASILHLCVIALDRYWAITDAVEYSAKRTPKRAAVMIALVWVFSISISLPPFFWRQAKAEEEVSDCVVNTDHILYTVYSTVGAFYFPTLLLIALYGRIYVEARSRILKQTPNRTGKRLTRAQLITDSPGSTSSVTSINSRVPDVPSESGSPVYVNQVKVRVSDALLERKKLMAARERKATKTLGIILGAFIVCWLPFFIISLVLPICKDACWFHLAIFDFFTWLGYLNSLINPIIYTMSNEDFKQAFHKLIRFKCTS
Kind of data set: Displacement of S-CM-G[125I]TNH2 binding with serotonin in monkey brain sections. On the set-up: species or system monkey (Macacca mulatta n.). The settings on record: displacement of 0.02 nM S-CM-G[125I]TNH2, read-out: IC50 (concentration which inhibits 50% of the binding). The protocol: (§1) A male monkey (Macacca mulatta n.) weighing 8 kg was sacrificed by means of an overdose of barbiturates and exsanguination. […] The right hemisphere is cut out and frozen by isopentane cooled in liquid nitrogen. The block is stored at -20° C. 10 μm thick sections are prepared in a cryostat at -20° C. and placed on gelatin-coated slides (Segu et al., 1990, J. Neurosci. Meth., 31, 197). They are stored at -20° C. until required.
(§2) The sections are preincubated for 1 h at 4° C. in a Krebs solution (mM: NaCl, 118; KCl, 4.5; CaCl2, 1.2; MgCl2, […]; Tris, 15; pH 7.4) in order to remove the endogenous ligands. They are then incubated at 20° C. for 60 minutes in a solution containing 10^-5 M pargyline, 57 mM ascorbic acid, 10 g/l of bovine serum albumin and 0.02 nM S--CM-G[^125 I]TNH2, alone or in the presence of increasing concentrations of serotonin. Some of the sections are incubated under identical conditions except that the radioactive probe is replaced either with 2 nM [^3 H]5-HT, or with 2 nM [^3 H]5-HT in the presence of 100 nM 8-hydroxy-2-[di-N-propylamino]tetralin (8-OH-DPAT) and 100 nM mesulergin, or with 1 nM [^3 H]8-OH-DPAT. After rinsing 2 x for 1 minute in distilled water, the sections are dried.
(§3) The slides are affixed to a tritium-sensitive film for 8 days. […] The autoradiographs are quantified with a video system for image analysis (Segu et al., 1990).

The test system of data set [2] is receptor binding sites with a high affinity for serotonin (5-HT1). As to the kind of experiment: Displacement, by the derivatives S-CM-R, of the high affinity binding of [3H]5-HT in rat brain sections. The settings on record: 2 nM [3H]5-HT. An excerpt: The distribution of the receptor binding sites with a high affinity for serotonin (5-HT1) is heterogeneous in the central nervous system of the rat (Pazos and Palacios, Brain Research, 346, 1985, p. 205-230; Segu et al., Brain Research, 384, 1986, p. 205-217). Furthermore, the content of subtypes of 5-HT1 sites varies according to the anatomical structure in question.
The protocol for preparing the brain sections is common to all the studies which follow. The animals are decapitated after anaesthesia with chloral hydrate (400 mg/kg of gross weight). The brains are quickly removed from the skull and frozen by immersion in isopentane cooled by liquid nitrogen. 20 μm sections, prepared in a cryostat at -20° C., are mounted on gelatin-coated slides and stored at -20° C.
The sections are preincubated for 1 hour at 4° C. in a Krebs solution (NaCl 118 mM; KCl 4.8 mm; CaCl2 1.2 mM; MgCl2 1.2 mM; Tris-HCl 15 mM, pH 7.4) in order to remove the endogenous ligands.
1. Displacement, by the derivatives S-CM-R, of the high affinity binding of serotonin in rat brain sections
The incubations take place for 60 minutes at 20° C. in a Krebs solution containing 10 μM pargyline, 5.7.10^-4 M ascorbic acid, 2 nM [^3 H]5-HT (NEN, As=30 Ci/mmol) and increasing concentrations of derivatives S-CM-R. The non-specific binding is determined on homothetic sections under the same conditions, but in the presence of 10^-5 M 5-HT.
After incubation, the sections are rinsed three times for 20 seconds in distilled water and dried by a stream of hot air. The sections are affixed to a film (Amersham) for 6 weeks in the presence of a standard ([^3 H] microscale, Amersham). The films are developed for 6 minutes with Kodak D19, rinsed and fixed with AL4 (Kodak). Quantitative analysis of the autoradiographs is performed with an image analysis system (Segu et al., J. Neurosci. Methods, 31, 1990, p. 197-208).

The nature of data set [3]: Passage across the blood-brain barrier after intracardiac injection (brain autoradiography). In kind it is in vivo, mice and guinea-pigs. The settings on record: intracardiac injection; 10 minutes; conclusion. As to the method: 2 mice and 2 guinea-pigs are deeply anaesthetized with chloral hydrate (intraperitoneal injection of 0.12 ml of a 35% solution per 100 g of body weight).
The mice and guinea-pigs receive intracardiac injections of 200 μl and 1.5 ml, respectively, of S--CM-G[^125 I]TNH2.
After 10 minutes, the animals, still under deep anaesthesia, are decapitated and the brains are frozen and stored as indicated in Example 1.
Sections are prepared and autoradiography is carried out as described in Example 1.

Data set [4] concerns 5-HT1D sites. Kind of data set: Labelling of substantia nigra in monkey brain sections (autoradiography). It counts as binding, monkey (Macacca mulatta n.). The settings on record: 1 nM [3H]8-OH-DPAT. As to the method: (§4) A male monkey (Macacca mulatta n.) weighing 8 kg was sacrificed by means of an overdose of barbiturates and exsanguination. […] The right hemisphere is cut out and frozen by isopentane cooled in liquid nitrogen. The block is stored at -20° C. […] They are stored at -20° C. until required.
(§5) Some of the sections are incubated under identical conditions except that the radioactive probe is replaced either with 2 nM [^3 H]5-HT, or with 2 nM [^3 H]5-HT in the presence of 100 nM 8-hydroxy-2-[di-N-propylamino]tetralin (8-OH-DPAT) and 100 nM mesulergin, or with 1 nM [^3 H]8-OH-DPAT. After rinsing 2 x for 1 minute in distilled water, the sections are dried.
(§6) The slides are affixed to a tritium-sensitive film for 8 days. The film is developed for 6 minutes in D19, rinsed and fixed.

For data set [5], the target named is T2, 5-HT1A sites (Macaca mulatta, UniProt F7GIU0).
T2 sequence (F7GIU0 1-421): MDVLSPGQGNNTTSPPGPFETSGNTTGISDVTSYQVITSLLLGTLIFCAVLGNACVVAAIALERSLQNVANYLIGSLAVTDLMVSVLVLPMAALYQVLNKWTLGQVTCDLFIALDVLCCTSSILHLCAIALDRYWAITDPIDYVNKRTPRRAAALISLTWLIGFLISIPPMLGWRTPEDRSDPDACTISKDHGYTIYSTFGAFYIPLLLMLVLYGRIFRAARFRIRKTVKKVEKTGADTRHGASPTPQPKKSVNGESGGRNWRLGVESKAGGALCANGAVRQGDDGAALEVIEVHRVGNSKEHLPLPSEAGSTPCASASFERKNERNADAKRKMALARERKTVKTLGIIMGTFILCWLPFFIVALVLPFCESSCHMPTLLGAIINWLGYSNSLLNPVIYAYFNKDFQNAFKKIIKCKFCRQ
As to the kind of experiment: Labelling of hippocampus in monkey brain sections (autoradiography). It counts as binding, monkey (Macacca mulatta n.). As to the method: as §1, §2, §3

Data set [6] addresses T1, 5-HT1D sites. Kind of data set: Labelling of substantia nigra in monkey brain sections (autoradiography). It counts as binding, monkey (Macacca mulatta n.). As to the method: as §4, §5, §6
The mark [7] stands for this setting: 60 min at 20° C, single IC50, read-out: IC50 (displacement of specific binding of [3H]5-HT).
The mark [8] stands for this setting: two-phase process, first site, read-out: IC50 for the first site (displacement of [3H]5-HT).
[9] abbreviates: two-phase process, second site, read-out: IC50 for the second site (displacement of [3H]5-HT).

Entries after “also recorded” stand apart in the source; their conditions may differ. Like-named read-outs stand apart in the source and are kept apart here.

`NCCc1c[nH]c2ccc(O)cc12` [5-HT, reference compound]: the IC50 in data set [1] is ~5 nM; in data set [2] (setting [7]), 2 nM. Further, the “phases of displacement of [3H]5-HT specific binding” value (shortened to “phases”) in data set [2] is “one-phase process”.
In the case of `NCCc1c[nH]c2ccc(OCC(=O)O)cc12` [S--CM], in data set [2] (setting [7]), the IC50 turned out to be 1000 nM.
For `NCCc1c[nH]c2ccc(OCC(=O)NCC(=O)N[C@@H](Cc3ccc(O)cc3)C(N)=O)cc12` [S-CM-GTNH2, tryptamine-5-O-carboxymethylglycyltyrosinamide], in data set [3], the “passage across the blood-brain barrier” value is “unable to pass through the blood-brain barrier”. For the same compound, in data set [2], the “phases” value is recorded as “two-phase process”. Also, the values for the IC50 in data set [2] (setting [8]) and in data set [2] (setting [9]) were 20 nM and 400 nM, respectively.
As to `NCCc1c[nH]c2ccc(OCC(=O)N[C@@H](Cc3ccc(O)cc3)C(=O)NCC(N)=O)cc12` [S-CM-Tyr-GlyNH2], in data set [2], the “phases” value is “two-phase process”. In addition, the IC50 in data set [2] (setting [8]) was determined as 20 nM; in data set [2] (setting [9]), 400 nM.
For the compound `CCCN(CCC)C1CCc2cccc(O)c2C1` (stereo not shown) [[^3 H]8-OH-DPAT, 8-hydroxy-2-[di-N-propylamino]tetralin], in data set [4], the “labelling of the substantia nigra” value is “not the substantia nigra”. Moreover, in data set [5] (1 nM [3H]8-OH-DPAT), the “labelling of the hippocampus” value is listed as “intense labelling; also recorded: showing the 5-HT1A sites exclusively located in the hippocampus”.
Turning to [^3 H]5-HT [reference compound], the “labelling of the substantia nigra” value was “substantial labelling; also recorded: showing the total 5-HT1 sites in the hippocampus (H) and the substantia nigra (SN)” in data set [6] (2 nM [3H]5-HT); “strong reaction with the substantia nigra; also recorded: showing the 5-HT1B sites virtually exclusively located in "the substantia nigra” in data set [6] (2 nM [3H]5-HT in the presence of 100 nM 8-OH-DPAT and 100 nM mesulergin). In data set [5] (2 nM [3H]5-HT), the “labelling of the hippocampus” value is on record as “substantial labelling; also recorded: showing the total 5-HT1 sites in the hippocampus (H)”.
